Legend:
Format in all cases: in vivo, C57BL/6 mice
[1] = system: bleomycin-induced pulmonary fibrosis model; test: Early pulmonary fibrosis: bleomycin-induced model, dosing from one week after modelling; conditions: for Leucocyte / Lymphocyte / Neutrophil / Ashcroft scores: early pulmonary fibrosis, 120 mg/kg/d intragastric, 14 days, from one week after model; for Leucocyte / Lymphocyte / Neutrophil: blood, Day 15, twice every day; for Ashcroft scores: lung tissue HE staining
[2] = system: Streptococcus pneumoniae-induced pulmonary fibrosis model; test: Streptococcus pneumoniae-induced pulmonary fibrosis model; conditions: for Leucocyte / Lymphocyte / Neutrophil / Ashcroft scores: Streptococcus pneumoniae + bleomycin, 120 mg/kg/d intragastric, 14 days; for Leucocyte / Lymphocyte / Neutrophil: blood, Day 15, 3 times every day, from one week after model; for Ashcroft scores: lung tissue HE staining
[3] = system: influenza B virus-induced pulmonary fibrosis model (influenza B (H7N9) virus); conditions: 120 mg/kg/d intragastric, 14 days; for Ashcroft scores: influenza B virus + bleomycin, lung tissue HE; for IL-1β / NF-κB / TNF-α / IL-6: serum, from two weeks after model; for IL-1β / NF-κB / TNF-α: influenza B (H7N9) + bleomycin; for IL-6: influenza B + bleomycin
[4] = system: coronavirus-induced pulmonary fibrosis model (HcoV-OC43); test: Coronavirus-induced pulmonary fibrosis model; conditions: 120 mg/kg/d intragastric, 14 days; for Ashcroft scores: coronavirus HcoV-OC43 + bleomycin, lung tissue HE; for IL-1β / IL-6 / NF-κB / TNF-α: serum, HcoV-OC43 + bleomycin, from two weeks after model
From the text: Experimental method: an in-vivo coronavirus-induced pulmonary fibrosis model mice was established: C57BL/6 mice (with weights being 22-25 g) were randomly and evenly divided into a plurality of groups, including blank control group, model group, Nintedanib positive control group, hypoxanthine analogue A group, hypoxanthine analogue B group, hypoxanthine analogue C group, compound 1 group, compound 2 group . . . compound 12 group, with 9 mice in each group. On Day 1, the mice in the blank control group were instilled with normal saline nasally, and the mice in other groups were all infected with HcoV-OC43 coronavirus strains (30 μL) through nasal instillation. On Day 2, the mice received 5 mg/kg bleomycin through tracheas to induce their pulmonary fibrosis. After the model was established for two weeks, the mice in each group were intragastrically administrated for intervention for consecutive 14 days; the mice in blank control group and model group intragastrically received the same dosage of the normal saline as those in drug groups; the mice in Nintedanib positive control group received Nintedanib (120 mg/kg); the mice in hypoxanthine analogue A group, hypoxanthine analogue B group and hypoxanthine analogue C group respectively received hypoxanthine analogue A (120 mg/kg/d), hypoxanthine analogue B (120 mg/kg/d) and hypoxanthine analogue C (120 mg/kg/d); and the mice in compound 1 group, compound 2 group . . . compound 12 group respectively received compound 1 (120 mg/kg/d), compound 2 (120 mg/kg/d) . . . compound 12 (120 mg/kg/d) prepared in example 1. After administration for consecutive 14 days, the mice were observed every day, and their weights and death conditions were recorded. After administration, blood was taken from eyeballs for immediately detecting the expression levels of NF-κB, TNF-α, IL-1 and IL-6 in serum, and lung tissues were taken for HE detection and Ashcroft scoring.

| Structure (SMILES) | Leucocyte [1] | Lymphocyte [1] | Neutrophil [1] | Ashcroft scores [1] | Leucocyte [2] | Lymphocyte [2] | Neutrophil [2] | Ashcroft scores [2] | Ashcroft scores [3] | IL-1β [3] | NF-κB [3] | TNF-α [3] | IL-6 [3] | Ashcroft scores [4] | IL-1β [4] | IL-6 [4] | NF-κB [4] | TNF-α [4] | inhibition (anti-inflammatory) effect on leucocytes, neutrophils and lymphocytes in blood ([1]; mice with early pulmonary fibrosis, result in words) | inhibition (anti-inflammatory) effect on leucocytes, neutrophils and lymphocytes in blood ([2]; mice with Streptococcus pneumoniae-induced pulmonary fibrosis, result in words) |
| --- | --- | --- | --- | --- | --- | --- | --- | --- | --- | --- | --- | --- | --- | --- | --- | --- | --- | --- | --- | --- |
| CC(C)n1cnc2nc[nH]c(=O)c21 [Compound 6] | 4.25 10^9/L | 5.49 10^9/L | 1.19 10^9/L | 1.08 | 5.91 10^9/L | 7.55 10^9/L | 1.88 10^9/L | 1.27 | 1.14 | 27.2 pg/mL | 32.4 pg/mL | 75.3 pg/mL | 65.6 pg/mL | 1.30 | 39.5 pg/mL | 65.7 pg/mL | 29.3 pg/mL | 56.2 pg/mL |  |  |
| CCC(=O)Oc1ncnc2c1ncn2C(C)C [Compound 12] | 4.21 10^9/L | 5.24 10^9/L | 1.18 10^9/L | 1.14 | 7.04 10^9/L | 7.23 10^9/L | 1.97 10^9/L | 1.39 | 1.26 | 27.8 pg/mL | 32.9 pg/mL | 75.4 pg/mL | 69.7 pg/mL | 1.37 | 35.8 pg/mL | 66.5 pg/mL | 27.7 pg/mL | 54.4 pg/mL |  |  |
| CC(C)Oc1ncnc2[nH]cnc12 [Compound 1] | 4.15 10^9/L | 5.42 10^9/L | 1.11 10^9/L | 0.99 | 5.52 10^9/L | 5.99 10^9/L | 2.00 10^9/L | 1.20 | 1.19 | 26.3 pg/mL | 30.5 pg/mL | 72.9 pg/mL | 65.1 pg/mL | 1.18 | 31.8 pg/mL | 62.7 pg/mL | 23.9 pg/mL | 51.8 pg/mL |  |  |
| COC(=O)c1ccc2c(c1)NC(=O)/C2=C(\Nc1ccc(N(C)C(=O)CN2CCN(C)CC2)cc1)c1ccccc1 [Nintedanib, reference compound] | 33.76 10^9/L | 33.87 10^9/L | 31.32 10^9/L | 3.69 | 98.31 10^9/L | 87.43 10^9/L | 78.94 10^9/L | 4.55 | 4.08 | 166.3 pg/mL | 529.7 pg/mL | 141.3 pg/mL | 176.1 pg/mL | 4.11 | 525.3 pg/mL | 421.5 pg/mL | 521.3 pg/mL | 411.3 pg/mL | obviously inferior | obviously inferior |
| CC(C)Oc1ncnc2ncn(C(C)C)c12 [Compound 4] | 4.29 10^9/L | 5.56 10^9/L | 1.31 10^9/L | 1.18 | 6.99 10^9/L | 6.84 10^9/L | 1.51 10^9/L | 1.29 | 1.17 | 27.6 pg/mL | 29.3 pg/mL | 73.9 pg/mL | 66.7 pg/mL | 1.39 | 35.5 pg/mL | 63.9 pg/mL | 26.7 pg/mL | 52.9 pg/mL |  |  |
| CC(C)n1cnc2c(=O)[nH]cnc21 [Compound 2] | 4.11 10^9/L | 5.19 10^9/L | 1.04 10^9/L | 1.01 | 5.48 10^9/L | 5.95 10^9/L | 1.83 10^9/L | 1.09 | 1.09 | 26.6 pg/mL | 29.5 pg/mL | 72.6 pg/mL | 65.4 pg/mL | 1.16 | 32.0 pg/mL | 62.6 pg/mL | 24.6 pg/mL | 51.2 pg/mL |  |  |

Reference: US20250188082A1, “Use of Hypoxanthine Compound In Preparation of Drug For Treating Pulmonary Fibrosis” (Sichuan Yiasuo Pharmaceutical Technology Co., Ltd., priority 2022, published 2025)
